Experiment [1] has as its target T1, AhR (Homo sapiens, UniProt P35869).
T1 sequence (P35869 11-848): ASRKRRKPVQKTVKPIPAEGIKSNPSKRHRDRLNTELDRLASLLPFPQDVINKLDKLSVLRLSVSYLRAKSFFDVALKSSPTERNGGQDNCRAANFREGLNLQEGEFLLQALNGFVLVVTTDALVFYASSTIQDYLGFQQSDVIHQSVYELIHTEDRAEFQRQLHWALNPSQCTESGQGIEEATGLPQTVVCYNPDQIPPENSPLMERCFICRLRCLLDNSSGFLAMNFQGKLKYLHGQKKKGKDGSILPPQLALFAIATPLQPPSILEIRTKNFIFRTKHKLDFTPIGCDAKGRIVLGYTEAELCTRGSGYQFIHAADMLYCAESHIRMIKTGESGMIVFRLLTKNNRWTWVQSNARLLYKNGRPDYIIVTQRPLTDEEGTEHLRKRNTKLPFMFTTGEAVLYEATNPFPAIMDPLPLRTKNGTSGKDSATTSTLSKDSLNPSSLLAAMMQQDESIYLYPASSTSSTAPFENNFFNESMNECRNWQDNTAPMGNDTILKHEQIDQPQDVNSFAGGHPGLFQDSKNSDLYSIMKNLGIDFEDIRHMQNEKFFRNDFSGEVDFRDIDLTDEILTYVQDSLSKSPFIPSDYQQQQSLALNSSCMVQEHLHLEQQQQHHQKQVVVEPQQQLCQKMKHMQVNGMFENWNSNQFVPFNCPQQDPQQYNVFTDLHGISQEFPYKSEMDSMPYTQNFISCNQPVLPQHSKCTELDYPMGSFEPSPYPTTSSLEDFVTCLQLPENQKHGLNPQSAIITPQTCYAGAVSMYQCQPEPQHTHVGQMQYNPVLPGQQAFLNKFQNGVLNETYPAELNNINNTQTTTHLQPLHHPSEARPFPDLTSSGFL
Put plainly: Reporter gene assay in AZ-AHR cells, antagonist analyses against TCDD, BaP, FICZ. The settings on record: for effect on AhR activation by BaP / effect on AhR activation by TCDD / antagonistic effect against full agonists / effect on AhR activation by FICZ: AZ-AHR cells, 24 h; for effect on AhR activation by BaP: BaP 15.8 µM; for effect on AhR activation by TCDD: TCDD 13.5 nM; for antagonistic effect against full agonists: TCDD, BaP and FICZ at EC80; for effect on AhR activation by FICZ: FICZ 22.6 µM. How it is done: (§1) In the first series of experiments, we evaluated the agonistic and antagonistic effects of MICT on the AhR activation. […] The antagonistic effects of MICT were evaluated against typical full agonists of the AhR, comprising TCDD, BaP, and FICZ, which were applied at fixed concentrations corresponding to their EC80.
AZ-AHR cells were incubated for 24 h with vehicle (DMSO; 0.1% v/v) and increasing concentrations of MICT, in the absence (agonist analyses) or the presence (antagonist analyses) of TCDD (13.5 nM), BaP (15.8 µM) and FICZ (22.6 µM). Following the treatments, we lysed cells, and luciferase activity was measured. Experiments were performed at least in four consecutive cell passages. Incubations were performed in quadruplicates (technical replicates). In agonist analyses, the data from a representative experiment, expressed as a fold induction of luciferase activity over control cells, are shown. In antagonist analyses, the data are a percentage of maximal induction, and they are the mean ± SD.
AZ-AHR cells were incubated for 24 h with vehicle (DMSO; 0.1% v/v) and increasing concentrations of tested MICT in the presence or absence of TCDD (13.5 nM), FICZ (22.6 µM), or BaP (15.8 µM). Then, cells were lysed, and luciferase activity was measured using the Tecan Infinite M200 plate luminometer (Schoeller Instruments, Czech Republic). The experiments were performed in at least four consecutive cell passages, and the treatments were in quadruplicates (technical replicates). The values of half-maximal effective concentration (EC50) for each MICT, and half-maximal inhibitory concentration (IC50—where appropriate) were calculated.
In general terms: In a reporter assay the amount or activity of a reporter protein is the signal.

In experiment [2] the target is T1, AhR. Briefly: Reporter gene assay in AZ-AHR cells, agonist analyses (luciferase). As for the experimental part: as §1
Following the treatments, we lysed cells, and luciferase activity was measured. Experiments were performed at least in four consecutive cell passages. Incubations were performed in quadruplicates (technical replicates). In agonist analyses, the data from a representative experiment, expressed as a fold induction of luciferase activity over control cells, are shown. In antagonist analyses, the data are a percentage of maximal induction, and they are the mean ± SD.
Then, cells were lysed, and luciferase activity was measured using the Tecan Infinite M200 plate luminometer (Schoeller Instruments, Czech Republic). The experiments were performed in at least four consecutive cell passages, and the treatments were in quadruplicates (technical replicates). The values of half-maximal effective concentration (EC50) for each MICT, and half-maximal inhibitory concentration (IC50—where appropriate) were calculated.
Supplementary Figure 2. Tryptophan effects in culture medium on AhR activity. (A) Time-course of Trp
levels in culture media from hepatic (AZ-AHR), instestinal (LS174T) and skin (HaCaT) cells. Determined by
HPLC. (B) Induction of AhR-dependent luciferase activity in AZ-AHR cells incubated for 24 h with TCDD,
Indole and Trp in Trp/serum-free culture medium. (C) Induction of AhR-dependent luciferase activity in
AZ-AHR cells incubated for 24 h with TCDD and Indole in standard (+Trp/+FBS), serum-free (+Trp/-FBS),
Trp-free (-Trp/+FBS) and Trp/serum-free (-Trp/-FBS) culture medium. […]

The mark [3] stands for this setting: EC50, AZ-AHR cells, 24 h, agonist analyses.
Where [4] appears, read: read-out: fold induction of luciferase activity (efficacy).

Values joined by “and” are separate entries in the source; they are usually repeats but may differ in a detail not shown here. Equal values may be shown once. Read-outs that look alike come from different tables or passages of the source.

For the compound `Cc1c[nH]c2ccccc12` [3MI, skatole], at AhR [1], the “effect on AhR activation by BaP” value is listed as “dose-dependently inhibited”, the “effect on AhR activation by TCDD” value is “dose-dependently inhibited” and the “antagonistic effect against full agonists” value (shortened to “antagonistic effect”) was “ligand-selective antagonism”. Further, at AhR [1] (Table 1 summary class), the “Antagonism (IC50)” value is on record as “ligand selective”. Also, the EC50 – broadly, the concentration at which the effect is half-maximal – at AhR [2] (setting [3]) was found to be 103 ± 1.78 µM. Also, on AhR [2] (Table 1 summary class), the “Efficacy (EMAX)” value was “medium” and the “Potency (EC50)” value is “low”.
For the compound `O=Cc1c[nH]c2ccccc12` [IA, indole-3-aldehyde], at AhR [1], the IC50 (usually the concentration needed to halve the response being measured) is 100 to 200 µM and the “antagonistic effect” value was “dose-dependent antagonistic effect”. Moreover, the “Antagonism (IC50)” value on AhR [1] (Table 1 summary class) is reported as “yes–all ligands”. In addition, on AhR [2] (setting [3]), the EC50 is 62.2 µM and 62 µM. Also, on AhR [2] (Table 1 summary class), the “Efficacy (EMAX)” value was “low” and the “Potency (EC50)” value is reported as “low”.
For the compound `O=C(O)/C=C/c1c[nH]c2ccccc12` [IAC, indole-3-acrylate], the “antagonistic effect” value at AhR [1] is “no antagonistic effects”. In addition, the “Antagonism (IC50)” value on AhR [1] (Table 1 summary class) is given as “none”. In addition, the EC50 at AhR [2] (setting [3]) was 42.3 ± 3.32 µM. Further, at AhR [2] (Table 1 summary class), the “Efficacy (EMAX)” value was “medium” and the “Potency (EC50)” value is reported as “low”. At AhR [2] (setting [4]), the fold induction at 100 µM is 40 to 100.
In the case of `NC(=O)Cc1c[nH]c2ccccc12` [IAD, indole-3-acetamide], on AhR [1], the “effect on AhR activation by BaP” value is listed as “potentiated”, the “effect on AhR activation by FICZ” value is “potentiated” and the “effect on AhR activation by TCDD” value is listed as “antagonized”. Moreover, on AhR [2] (setting [3]), the EC50 came to 99.9 ± 2.86 µM. Further, at AhR [2] (Table 1 summary class), the “Efficacy (EMAX)” value is recorded as “high” and the “Potency (EC50)” value is “low”.
For the compound `OCCc1c[nH]c2ccccc12` [IET, indole-3-ethanol], the “antagonistic effect” value at AhR [1] was “no antagonistic effects”. Moreover, the EC50 at AhR [2] (setting [3]) amounted to 98 ± 6.41 µM. In addition, at AhR [2] (Table 1 summary class), the “Efficacy (EMAX)” value was “medium” and the “Potency (EC50)” value is given as “low”.
Consider `O=C(O)C(O)Cc1c[nH]c2ccccc12` (stereo not drawn) [ILA, indole-3-lactate], for which, on AhR [1], the “Antagonism (IC50)” value was “none” and the “antagonistic effect” value is “no antagonistic effects”. Besides, the “Potency (EC50)” value at AhR [2] is “low”. Besides, the EC50 on AhR [2] (setting [3]) was 82 ± 17.1 µM. The “Efficacy (EMAX)” value on AhR [2] (Table 1 summary class) is “low”.
With `c1ccc2[nH]ccc2c1` [IND, indole], the “antagonistic effect” value at AhR [1] was “dose-dependent antagonistic effect”. In addition, the “Antagonism (IC50)” value on AhR [1] (Table 1 summary class) is listed as “yes–all ligands”. In addition, at AhR [2], the “Efficacy (EMAX)” value is “high”, the “Potency (EC50)” value is given as “very low” and the induced luciferase activity was determined as 500 fold. In addition, the EC50 at AhR [2] (EC50) was ~1500 µM and 1480 µM. For the same compound, on AhR [2] (setting [4]), the fold induction at 10000 µM lay within 200 to 600.
Turning to `O=C(O)C(=O)Cc1c[nH]c2ccccc12` [IPY, indole-3-pyruvate], at AhR [1], the “effect on AhR activation by BaP” value is listed as “potentiated”, the “effect on AhR activation by FICZ” value is given as “potentiated” and the “effect on AhR activation by TCDD” value is recorded as “antagonized”. For the same compound, the “Antagonism (IC50)” value at AhR [1] (Table 1 summary class) is “ligand selective”. The EC50 at AhR [2] (setting [3]) came to 98.5 ± 10.1 µM. In addition, on AhR [2] (Table 1 summary class), the “Efficacy (EMAX)” value was “high” and the “Potency (EC50)” value is given as “low”.
In the case of `NCCc1c[nH]c2ccccc12` [TA, tryptamine], at AhR [1], the “antagonistic effect” value is reported as “dose-dependent antagonistic effect”. Also, the “Antagonism (IC50)” value at AhR [1] (Table 1 summary class) is on record as “yes–all ligands”. The EC50 on AhR [2] (setting [3]) was 83.1 ± 12.7 µM. Moreover, on AhR [2] (Table 1 summary class), the “Efficacy (EMAX)” value is on record as “medium” and the “Potency (EC50)” value is on record as “low”.
Turning to `Clc1cc2c(cc1Cl)Oc1cc(Cl)c(Cl)cc1O2` [TCDD, 2,3,7,8-tetrachlorodibenzo-p-dioxin, reference compound], on AhR [2] (AZ-AHR cells, 24 h, Trp-free/serum-free medium), the induced luciferase activity amounted to 10000 fold.

Source of the values: article PMC7177849, “Gut Microbial Catabolites of Tryptophan Are Ligands and Agonists of the Aryl Hydrocarbon Receptor: A Detailed Characterization” (International Journal of Molecular Sciences, 2020).
